Measurements from patent US9763961B2, “Compositions that modulate the activity of estrogen receptors and estrogen-related receptors and methods for use” (CITY OF HOPE, priority 2005, dated 2017).

What was measured:
ERRα = biological target: T1, ERRα (Homo sapiens, UniProt P11474); assay: Competitive [3H] genistein binding whole cell assay in ERRα-positive SK-BR-3 cells; design: endogenous in cells; host or cells: SK-BR-3; settings: FIG. 4
T1 sequence (P11474 1-423): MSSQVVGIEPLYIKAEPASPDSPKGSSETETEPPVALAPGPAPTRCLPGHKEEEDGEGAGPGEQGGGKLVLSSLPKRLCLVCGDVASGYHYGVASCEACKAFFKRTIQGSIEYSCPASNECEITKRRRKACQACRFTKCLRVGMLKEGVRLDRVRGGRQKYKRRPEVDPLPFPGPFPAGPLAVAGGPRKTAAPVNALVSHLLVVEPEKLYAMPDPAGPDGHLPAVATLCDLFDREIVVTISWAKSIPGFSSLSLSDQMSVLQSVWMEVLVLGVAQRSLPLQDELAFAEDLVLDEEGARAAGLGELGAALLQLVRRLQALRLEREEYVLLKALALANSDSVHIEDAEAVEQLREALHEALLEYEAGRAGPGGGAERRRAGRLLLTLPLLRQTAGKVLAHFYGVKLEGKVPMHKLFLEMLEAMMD
Experimental: In order to directly measure the binding affinities of agonists and inverse agonists to ERRα, we performed a competitive ERR binding whole cell assay using ERRα-positive SK-BR-3 cells. This method is developed based on the ER binding assay posted by the National Toxicology Program at the NIEHS <<http://iccvam.niehs.nih.gov/methods/endodocs/final/erbndbrd/erbdappx/B1.pdf>>. […] After the cells were washed twice with PBS, 250 μl ethanol will be added to each well for 20 min. Aliquots of ethanol extract was mixed with scintillation liquid for radioactivity measurements. The experiments have been performed in triplicate.
In addition to reporter activity assay, in order to evaluate the interaction of chalcones with ERRα, a competitive binding assay was performed.
Referring to FIG. 4, SK-BR-3 cells, which are positive for ERRα, were incubated with 1 μM of [3H] GEN and increasing concentrations of unlabeled GEN or Compound Nos. 1-9 or 7-5. After 1 h of incubation, the cells were washed with 1× PBS, and [3H] GEN was then extracted from the cells by an incubation of 30 min in 250 μl of ethanol. Values represent the mean±SD.

[1] = biological target: T2, GAL4-human ERRα LBD fusion (Homo sapiens, UniProt P11474); assay: Transient transfection luciferase assay, GAL4-human ERRα LBD fusion with Gal4-TK-Luc reporter in HeLa cells; type: cell-based; settings: pM-ERRα LBD, 24 h, mean ± SD
T2 construct: GAL4-human ERRα LBD fusion expression plasmid; expressed in transfected cells; host or cells: HeLa
T2 sequence (P11474 193-421 limits assumed): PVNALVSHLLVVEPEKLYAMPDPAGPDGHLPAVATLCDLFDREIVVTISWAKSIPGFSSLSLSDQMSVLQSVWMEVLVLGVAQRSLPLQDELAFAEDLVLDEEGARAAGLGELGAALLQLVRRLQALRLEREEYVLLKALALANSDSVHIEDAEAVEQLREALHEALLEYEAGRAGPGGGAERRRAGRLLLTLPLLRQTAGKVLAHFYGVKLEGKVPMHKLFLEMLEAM
Experimental: Referring to FIG. 2, we have also prepared GAL4-ERRα expression plasmid and luciferase reporter plasmids with GAL4 response element. This is a more sensitive assay method than that using pSG5-ERRα and ERE luciferase reporter plasmids.
To evaluate the functional significance of the interaction of chalcones with ERRα, we incubated these compounds with HeLa cells which were transiently transfected with human ERRα expression plasmid and a luciferase reporter plasmid containing SF1 binding site. […] In order to confirm the results above, HeLa cells were transiently transfected with GAL4-human ERRα LBD fusion expression plasmid and a luciferase reporter plasmid containing GAL4 binding site. […] Most of the compounds, however, have similar IC50 value, and have a similar potency.
(§1) Referring to FIG. 2, HeLa cells were cotransfected with pM-ERRα LBD (0.5 μg) and luciferase reporter plasmid containing GAL4 binding site and TK promoter (0.25 μg). The transfected cells were incubated with Compound No. 1-9 for 24 h. After cells were washed with 1× PBS, luciferase activity was measured. Values represent the mean±SD.

[2] = system: promoter I.3 of human aromatase gene (through ERRα); assay: Aromatase promoter I.3 luciferase reporter with pSG5-ERRα in HepG2 cells; type: cell-based; settings: 24 h, FIG. 5
Experimental: Aromatase expression is regulated by several promoters, including ERRα modulating promoter I.3. In order to evaluate the effect of chalcones on aromatase activity through ERRα, transient transfection experiments using luciferase reporter plasmid containing a regulatory element S1 and promoter I.3 of human aromatase gene were performed in HepG2 cells. The transfected cells were incubated with chalcones, and luciferase activity was measured.
as §1, with “5, HepG2” for “2, HeLa”, “pSG5-ERRα (2” for “pM-ERRα LBD (0.5”, “S1” for “GAL4 binding site”, “and” for “and TK”, “I.3 of human aromatase gene (0.5” for “(0.25”

aromatase in HepG2 cells = assay: In-cell aromatase assay in HepG2 cells; type: cell-based; settings: 24 h, FIG. 6C
Experimental: To evaluate the effect of chalcones on aromatase activity, we performed both in vitro assay and in-cell assay with chalcones. […] In addition, MCF-7 aro cells, which are stable aromatase-expressing breast cancer cell line, were incubated with chalcones.
Referring to FIG. 6, the effect of Compound No. 1-9 on aromatase activity was investigated by both in vitro inhibition assay (A) and in-cell aromatase assay (B; MCF-7 aro cells, C; HepG2 cells, D; SK-BR-3 cells). Referring to FIG. 6A, aromatase inhibition study with Compound No. 1-9 was performed on a human placental microsomal aromatase preparation using the assay procedures described in (9). Referring to FIG. 6B, MCF-7 aro cells, which are stable aromatase-expressing cell line generated in our laboratory (10), were incubated with 10 μM of Compound No. 1-9. After 24 h incubation, aromatase activity was measured by [3H] H20 release method. HepG2 cells, as shown in FIG. 6C and SK-BR-3 cells as shown in FIG. 6D were also incubated with Compound No. 1-9 for 24 h, and aromatase activities were measured. Values represent the mean±SD.

IC50 [1] [pM]	SMILES	Inhibition of binding of [3H] labeled genistein (in words) (ERRα)	Effect on promoter I.3 activity [2]	Effect on aromatase activity, HepG2 cells (aromatase in HepG2 cells)
1.1e+06 ± 700000	COc1cccc(/C=C/C(=O)c2ccc(O)cc2O)c1OC [Compound No. 1-9, 2′,4′-Dihydroxy-2,3-dimethoxychalcone]	competitively inhibited the binding of [3H] labeled genistein in a dose-dependent manner	suppressed the promoter I.3 activity in a dose-dependent manner	inhibited aromatase activity in a dose-dependent manner
900000 ± 400000	O=C(/C=C/c1ccccc1O)c1ccc(O)cc1O [Compound No. 7-5, 2,2′,4′-Trihydroxychalcone]	competitively inhibited the binding of [3H] labeled genistein in a dose-dependent manner	–	–
